From patent publication US8168651B2, “Protein kinase modulators” (Cylene Pharmaceuticals, Inc., priority 2008, dated 2012)

What was measured:
Assay in all cases: Standardized radiometric kinase assays, percentage of activity at 0.5 μM;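 further: Read-out is ³³P-labelled substrate protein phosphorylated by each kinase, captured on filters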
[1] = target: each individual kinase of the panel (Homo sapiens, UniProt Q02750); conditions: for % Activity: MEK1(h)
[2] = target: each individual kinase of the panel (Homo sapiens, UniProt P06239); conditions: for % Activity: Lck(h)
[3] = target: each individual kinase of the panel (Homo sapiens, UniProt P19784); conditions: for % Activity: CK2α2(h)
[4] = target: each individual kinase of the panel (Homo sapiens, UniProt O00418); conditions: for % Activity: eEF-2K(h)
Chain of each individual kinase of the panel (Homo sapiens, UniProt O00418) (O00418 2-725 limits assumed): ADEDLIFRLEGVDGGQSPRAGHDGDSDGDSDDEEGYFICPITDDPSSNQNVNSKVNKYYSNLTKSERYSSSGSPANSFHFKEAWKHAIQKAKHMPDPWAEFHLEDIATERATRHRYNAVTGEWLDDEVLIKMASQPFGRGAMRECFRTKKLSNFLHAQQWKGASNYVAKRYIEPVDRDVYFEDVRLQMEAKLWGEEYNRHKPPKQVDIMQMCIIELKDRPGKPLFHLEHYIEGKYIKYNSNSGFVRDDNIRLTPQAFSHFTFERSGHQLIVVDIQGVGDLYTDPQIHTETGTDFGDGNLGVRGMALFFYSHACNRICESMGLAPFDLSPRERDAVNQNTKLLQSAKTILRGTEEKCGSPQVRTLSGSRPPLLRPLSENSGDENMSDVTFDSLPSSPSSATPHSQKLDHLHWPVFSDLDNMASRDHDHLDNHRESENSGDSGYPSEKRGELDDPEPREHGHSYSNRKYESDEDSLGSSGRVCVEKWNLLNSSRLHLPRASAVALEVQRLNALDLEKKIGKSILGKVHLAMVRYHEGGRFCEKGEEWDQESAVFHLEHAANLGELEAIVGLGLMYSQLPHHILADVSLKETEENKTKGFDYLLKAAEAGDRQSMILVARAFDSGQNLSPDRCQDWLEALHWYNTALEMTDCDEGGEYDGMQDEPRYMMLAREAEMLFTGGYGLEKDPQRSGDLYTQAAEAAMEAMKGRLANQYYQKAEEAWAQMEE

[5] = target: each individual kinase of the panel (Homo sapiens, UniProt O14733); conditions: for % Activity: MKK7β(h)
Chain of each individual kinase of the panel (Homo sapiens, UniProt O14733) (O14733 2-419 limits assumed): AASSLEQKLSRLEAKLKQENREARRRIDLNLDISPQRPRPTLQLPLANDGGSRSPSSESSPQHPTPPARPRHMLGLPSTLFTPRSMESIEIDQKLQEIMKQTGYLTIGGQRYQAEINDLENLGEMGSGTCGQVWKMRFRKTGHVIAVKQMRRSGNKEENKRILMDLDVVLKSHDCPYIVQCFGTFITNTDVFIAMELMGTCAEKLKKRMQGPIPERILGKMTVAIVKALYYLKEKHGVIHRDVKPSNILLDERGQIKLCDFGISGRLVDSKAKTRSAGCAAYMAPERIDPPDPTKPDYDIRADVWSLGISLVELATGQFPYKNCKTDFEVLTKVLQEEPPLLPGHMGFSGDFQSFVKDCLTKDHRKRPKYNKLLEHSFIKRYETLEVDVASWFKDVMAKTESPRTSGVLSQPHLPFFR

[6] = target: each individual kinase of the panel (Homo sapiens, UniProt Q02763); conditions: for % Activity: Tie2(h)
Chain of each individual kinase of the panel (Homo sapiens, UniProt Q02763) (Q02763 23-1124 limits assumed): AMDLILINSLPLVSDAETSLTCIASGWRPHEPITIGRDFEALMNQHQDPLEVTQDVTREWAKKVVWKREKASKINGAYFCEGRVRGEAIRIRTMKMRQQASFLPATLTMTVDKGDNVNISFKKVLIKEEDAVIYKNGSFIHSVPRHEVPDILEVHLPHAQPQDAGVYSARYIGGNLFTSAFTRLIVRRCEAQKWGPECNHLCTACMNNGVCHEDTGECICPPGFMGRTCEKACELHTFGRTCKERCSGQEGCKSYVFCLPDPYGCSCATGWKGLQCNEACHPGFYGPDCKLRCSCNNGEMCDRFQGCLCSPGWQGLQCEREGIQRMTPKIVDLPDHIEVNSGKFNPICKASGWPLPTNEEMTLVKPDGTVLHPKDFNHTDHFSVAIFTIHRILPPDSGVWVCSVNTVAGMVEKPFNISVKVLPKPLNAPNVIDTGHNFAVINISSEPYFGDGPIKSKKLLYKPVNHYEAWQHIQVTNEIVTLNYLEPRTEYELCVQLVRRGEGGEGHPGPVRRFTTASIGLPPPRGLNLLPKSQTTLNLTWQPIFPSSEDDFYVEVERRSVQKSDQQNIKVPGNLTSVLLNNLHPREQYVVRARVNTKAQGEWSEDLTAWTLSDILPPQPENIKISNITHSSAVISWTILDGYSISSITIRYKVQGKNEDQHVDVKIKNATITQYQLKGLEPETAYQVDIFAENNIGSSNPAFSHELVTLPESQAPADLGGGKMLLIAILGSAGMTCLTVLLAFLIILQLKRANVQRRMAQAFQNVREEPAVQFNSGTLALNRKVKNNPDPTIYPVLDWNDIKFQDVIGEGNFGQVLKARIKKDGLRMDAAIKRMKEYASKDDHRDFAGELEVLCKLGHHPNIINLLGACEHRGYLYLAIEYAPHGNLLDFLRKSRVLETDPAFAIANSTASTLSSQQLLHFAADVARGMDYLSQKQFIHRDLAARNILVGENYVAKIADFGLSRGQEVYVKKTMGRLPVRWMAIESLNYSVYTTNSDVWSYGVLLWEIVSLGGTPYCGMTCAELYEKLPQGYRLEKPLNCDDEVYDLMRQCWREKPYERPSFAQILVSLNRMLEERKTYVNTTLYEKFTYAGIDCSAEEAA

[7] = target: each individual kinase of the panel (Homo sapiens, UniProt P16234); conditions: for % Activity: PDGFRα(h)
[8] = target: each individual kinase of the panel (Homo sapiens, UniProt P11309); conditions: for % Activity: Pim-1(h)
[9] = target: each individual kinase of the panel (Homo sapiens, UniProt Q9UK32); conditions: for % Activity: Rsk4(h)
[10] = target: each individual kinase of the panel (Homo sapiens, UniProt P00533, L858R); conditions: for % Activity: EGFR(L858R)(h)
[11] = target: each individual kinase of the panel (Homo sapiens, UniProt P07947); conditions: for % Activity: Yes(h)
Chain of each individual kinase of the panel (Homo sapiens, UniProt P07947) (P07947 2-543 limits assumed): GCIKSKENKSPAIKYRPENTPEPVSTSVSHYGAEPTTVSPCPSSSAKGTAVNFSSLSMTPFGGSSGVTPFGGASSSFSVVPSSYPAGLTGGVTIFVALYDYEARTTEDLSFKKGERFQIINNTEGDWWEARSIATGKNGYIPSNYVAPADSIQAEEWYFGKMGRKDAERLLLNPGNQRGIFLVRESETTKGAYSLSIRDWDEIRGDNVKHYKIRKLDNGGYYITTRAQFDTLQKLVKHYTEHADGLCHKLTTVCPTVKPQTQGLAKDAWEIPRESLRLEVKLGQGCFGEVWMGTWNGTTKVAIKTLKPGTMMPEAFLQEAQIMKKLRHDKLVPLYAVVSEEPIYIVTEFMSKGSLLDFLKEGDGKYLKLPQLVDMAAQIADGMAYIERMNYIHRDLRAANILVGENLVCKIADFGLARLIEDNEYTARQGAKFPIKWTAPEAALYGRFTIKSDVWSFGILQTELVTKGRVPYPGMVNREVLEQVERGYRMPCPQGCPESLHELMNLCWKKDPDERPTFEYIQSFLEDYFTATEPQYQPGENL

[12] = target: each individual kinase of the panel (Homo sapiens, UniProt P04629); conditions: for % Activity: TrkA(h)
[13] = target: each individual kinase of the panel (Homo sapiens, UniProt P08069); conditions: for % Activity: IGF-1R(h)
[14] = target: each individual kinase of the panel (Homo sapiens, UniProt P10721, V560G); conditions: for % Activity: cKit(V560G)(h)
[15] = target: each individual kinase of the panel (Homo sapiens, UniProt P06241); conditions: for % Activity: Fyn(h)
[16] = target: each individual kinase of the panel (Homo sapiens, UniProt Q04759); conditions: for % Activity: PKCθ(h)
[17] = target: each individual kinase of the panel (Homo sapiens, UniProt P00533, L858R/T790M); conditions: for % Activity: EGFR(T790M,L858R)(h)
[18] = target: each individual kinase of the panel (Homo sapiens, UniProt Q16832)
Chain of each individual kinase of the panel (Homo sapiens, UniProt Q16832) (Q16832 22-855 limits assumed): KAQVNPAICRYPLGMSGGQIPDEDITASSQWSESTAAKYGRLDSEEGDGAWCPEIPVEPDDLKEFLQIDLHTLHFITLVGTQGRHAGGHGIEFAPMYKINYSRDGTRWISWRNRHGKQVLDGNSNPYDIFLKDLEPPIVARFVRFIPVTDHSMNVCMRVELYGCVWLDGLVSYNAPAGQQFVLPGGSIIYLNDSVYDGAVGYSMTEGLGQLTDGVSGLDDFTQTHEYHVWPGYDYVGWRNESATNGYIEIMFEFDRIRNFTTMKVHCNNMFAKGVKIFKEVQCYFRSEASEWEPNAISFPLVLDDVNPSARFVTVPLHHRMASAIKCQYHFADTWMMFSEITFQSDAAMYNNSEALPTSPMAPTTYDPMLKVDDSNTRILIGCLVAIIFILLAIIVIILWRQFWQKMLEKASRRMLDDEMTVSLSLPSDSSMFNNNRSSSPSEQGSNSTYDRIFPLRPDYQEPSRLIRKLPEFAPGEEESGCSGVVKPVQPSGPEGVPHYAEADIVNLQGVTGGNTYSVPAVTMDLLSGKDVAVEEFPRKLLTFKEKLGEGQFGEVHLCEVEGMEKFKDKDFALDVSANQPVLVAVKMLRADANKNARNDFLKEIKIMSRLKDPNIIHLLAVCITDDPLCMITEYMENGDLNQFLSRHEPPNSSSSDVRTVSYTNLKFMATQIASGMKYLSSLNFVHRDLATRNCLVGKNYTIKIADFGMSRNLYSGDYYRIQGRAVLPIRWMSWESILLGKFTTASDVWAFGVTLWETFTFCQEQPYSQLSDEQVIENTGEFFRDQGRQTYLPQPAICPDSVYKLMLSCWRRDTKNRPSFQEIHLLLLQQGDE

[19] = target: each individual kinase of the panel (Homo sapiens, UniProt P50613); conditions: for % Activity: CDK7/cyclinH/MAT1(h)
Chain of each individual kinase of the panel (Homo sapiens, UniProt P50613) (P50613 2-346 limits assumed): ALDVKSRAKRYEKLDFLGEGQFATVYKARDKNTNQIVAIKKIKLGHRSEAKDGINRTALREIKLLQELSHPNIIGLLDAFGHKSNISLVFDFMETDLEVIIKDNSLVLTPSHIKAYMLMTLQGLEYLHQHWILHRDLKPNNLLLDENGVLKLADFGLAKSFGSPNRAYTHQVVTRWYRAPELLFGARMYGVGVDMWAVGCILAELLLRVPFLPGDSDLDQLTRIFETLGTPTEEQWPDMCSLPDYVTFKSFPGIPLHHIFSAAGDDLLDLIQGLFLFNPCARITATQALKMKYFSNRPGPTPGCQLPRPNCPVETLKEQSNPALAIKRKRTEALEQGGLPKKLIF

[20] = target: each individual kinase of the panel (Homo sapiens, UniProt P10721, D816H); conditions: for % Activity: cKit(D816H)(h)
[21] = target: each individual kinase of the panel (Homo sapiens, UniProt P16591); conditions: for % Activity: Fer(h)
[22] = target: each individual kinase of the panel (Homo sapiens, UniProt P51812); conditions: for % Activity: Rsk2(h)
[23] = target: each individual kinase of the panel (Homo sapiens, UniProt P10721); conditions: for % Activity: cKit(h)
Chain of each individual kinase of the panel (Homo sapiens, UniProt P10721) (P10721 26-976 limits assumed): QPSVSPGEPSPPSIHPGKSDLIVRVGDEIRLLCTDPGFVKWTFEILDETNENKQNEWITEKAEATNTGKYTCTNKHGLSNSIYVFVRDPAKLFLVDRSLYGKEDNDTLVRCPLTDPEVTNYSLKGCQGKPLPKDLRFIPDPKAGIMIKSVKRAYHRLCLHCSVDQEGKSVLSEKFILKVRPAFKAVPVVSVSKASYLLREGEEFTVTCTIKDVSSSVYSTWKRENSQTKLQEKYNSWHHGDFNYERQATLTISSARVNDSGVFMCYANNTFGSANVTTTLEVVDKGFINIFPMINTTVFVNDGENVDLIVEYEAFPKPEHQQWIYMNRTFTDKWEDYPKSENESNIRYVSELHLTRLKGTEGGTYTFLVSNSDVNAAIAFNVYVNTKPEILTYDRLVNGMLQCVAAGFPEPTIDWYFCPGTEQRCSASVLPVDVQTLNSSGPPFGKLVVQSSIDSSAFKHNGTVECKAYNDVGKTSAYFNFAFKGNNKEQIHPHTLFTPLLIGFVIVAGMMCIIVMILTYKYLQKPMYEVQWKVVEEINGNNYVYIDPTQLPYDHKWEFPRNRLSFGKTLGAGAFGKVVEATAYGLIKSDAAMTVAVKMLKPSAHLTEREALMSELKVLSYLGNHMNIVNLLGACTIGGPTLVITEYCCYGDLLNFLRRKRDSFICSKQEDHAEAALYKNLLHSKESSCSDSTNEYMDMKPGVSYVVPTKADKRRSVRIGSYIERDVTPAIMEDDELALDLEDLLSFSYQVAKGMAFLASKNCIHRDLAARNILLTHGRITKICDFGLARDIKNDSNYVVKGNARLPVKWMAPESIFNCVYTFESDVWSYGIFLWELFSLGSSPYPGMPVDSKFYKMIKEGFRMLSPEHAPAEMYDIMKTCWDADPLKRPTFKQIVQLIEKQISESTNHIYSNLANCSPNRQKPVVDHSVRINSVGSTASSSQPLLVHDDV

[24] = target: each individual kinase of the panel (Homo sapiens, UniProt Q9BZL6); conditions: for % Activity: PKD2(h)
[25] = target: each individual kinase of the panel (Homo sapiens, UniProt Q15418); conditions: for % Activity: Rsk1(h)
[26] = target: each individual kinase of the panel (Homo sapiens, UniProt O43318); conditions: for % Activity: TAK1(h)
[27] = target: each individual kinase of the panel (Homo sapiens, UniProt Q9H4B4)
[28] = target: each individual kinase of the panel (Homo sapiens, UniProt Q9UM73)

Clc1ccccc1Nc1nc2c(-c3nnc[nH]3)cccc2c2cnccc12 [A]
% Activity [1]: 72% | % Activity [2]: 21% | % Activity [3]: 73% | % Activity [4]: 111% | % Activity [5]: 81% | % Activity [6]: 108% | % Activity [7]: 97% | % Activity [8]: 1% | % Activity [9]: 12% | % Activity [10]: 56% | % Activity [11]: 26% | % Activity [12]: 6% | % Activity [13]: 101% | % Activity [14]: 38% | % Activity [15]: 49% | % Activity [16]: 39% | % Activity [17]: 20% | % Activity ([18]; DDR2(h)): 90% | % Activity [19]: 50% | % Activity [20]: 8% | % Activity [21]: 90% | % Activity [22]: 13% | % Activity [23]: 89% | % Activity [24]: 86% | % Activity [25]: 6% | % Activity [26]: 28%

NC(=O)c1cccc2c1nc(Nc1cccc(Cl)c1)c1ccncc12 [B]
% Activity [1]: 88% | % Activity [2]: 24% | % Activity [3]: 51% | % Activity [4]: 93% | % Activity [5]: 75% | % Activity [6]: 93% | % Activity [7]: 105% | % Activity ([27]; Plk3(h)): 102% | % Activity [8]: 9% | % Activity [9]: 41% | % Activity [10]: 56% | % Activity [11]: 44% | % Activity [12]: 23% | % Activity [13]: 90% | % Activity [14]: 33% | % Activity [15]: 49% | % Activity [16]: 83% | % Activity [17]: 59% | % Activity [19]: 17% | % Activity [20]: 9% | % Activity [21]: 103% | % Activity [22]: 40% | % Activity [23]: 88% | % Activity [24]: 86% | % Activity ([28]; ALK(h)): 100% | % Activity [25]: 21% | % Activity [26]: 79%

C#Cc1cccc(Nc2nc3cc(C(=O)O)ccc3c3cncnc23)c1 [drawing 1135]
MEK1 percentage of activity [1]: −36% | eEF−2K(h) percentage of activity [4]: −6% | MAP2K7 beta percentage of activity [5]: −33% | TIE2 percentage of activity [6]: 1% | PDGFRA percentage of activity [7]: −9% | PLK3 percentage of activity [27]: −6% | PIM1 percentage of activity [8]: 73% | RPS6KA6 percentage of activity [9]: 22% | YES percentage of activity [11]: −9% | TRKA percentage of activity [12]: 10% | IGF1R percentage of activity [13]: 27% | cKit(V560G) percentage of activity [14]: −11% | FYN percentage of activity [15]: −14% | PRKCT percentage of activity [16]: −11% | DDR2 percentage of activity [18]: −9% | CDK7/cyclinH/MAT1 percentage of activity [19]: 23% | cKit(D816H) percentage of activity [20]: −1% | FER percentage of activity [21]: −3% | RPS6KA3 percentage of activity [22]: 34% | cKit(h) percentage of activity [23]: −14% | PRKd_nM2 percentage of activity [24]: −7% | ALK percentage of activity [28]: −12% | RPS6KA1 percentage of activity [25]: 22% | TAK1 percentage of activity [26]: −1%

C#Cc1cccc(Nc2nc3cc(C(=O)O)ccc3c3cnccc23)c1 [drawing 1137]
MEK1 percentage of activity [1]: 4% | LCK percentage of activity [2]: 33% | eEF−2K(h) percentage of activity [4]: −8% | MAP2K7 beta percentage of activity [5]: 7% | TIE2 percentage of activity [6]: −12% | PDGFRA percentage of activity [7]: −2% | PLK3 percentage of activity [27]: −1% | PIM1 percentage of activity [8]: 75% | RPS6KA6 percentage of activity [9]: 65% | EGFR(L858R) percentage of activity [10]: 24% | YES percentage of activity [11]: 34% | TRKA percentage of activity [12]: 56% | IGF1R percentage of activity [13]: −9% | cKit(V560G) percentage of activity [14]: 69% | FYN percentage of activity [15]: 18% | PRKCT percentage of activity [16]: 10% | EGFR(T790M, L858R) percentage of activity [17]: 26% | DDR2 percentage of activity [18]: 12% | CDK7/cyclinH/MAT1 percentage of activity [19]: 36% | cKit(D816H) percentage of activity [20]: 87% | FER percentage of activity [21]: 6% | RPS6KA3 percentage of activity [22]: 53% | cKit(h) percentage of activity [23]: 15% | PRKd_nM2 percentage of activity [24]: 0% | ALK percentage of activity [28]: −20% | RPS6KA1 percentage of activity [25]: 54% | TAK1 percentage of activity [26]: 6%

NC(=O)c1ccc2c(c1)nc(Nc1cccc(Cl)c1)c1ccncc12 [drawing 1138]
MEK1 percentage of activity [1]: 8% | LCK percentage of activity [2]: 79% | CK2 alpha 2 percentage of activity [3]: 96% | eEF−2K(h) percentage of activity [4]: −3% | MAP2K7 beta percentage of activity [5]: 12% | TIE2 percentage of activity [6]: 45% | PDGFRA percentage of activity [7]: 5% | PLK3 percentage of activity [27]: 0% | PIM1 percentage of activity [8]: 18% | EGFR(L858R) percentage of activity [10]: 63% | YES percentage of activity [11]: 30% | TRKA percentage of activity [12]: 62% | IGF1R percentage of activity [13]: −23% | cKit(V560G) percentage of activity [14]: 75% | FYN percentage of activity [15]: 32% | PRKCT percentage of activity [16]: 1% | EGFR(T790M, L858R) percentage of activity [17]: 48% | DDR2 percentage of activity [18]: 5% | CDK7/cyclinH/MAT1 percentage of activity [19]: 57% | cKit(D816H) percentage of activity [20]: 63% | FER percentage of activity [21]: 8% | cKit(h) percentage of activity [23]: −10% | PRKd_nM2 percentage of activity [24]: 25% | ALK percentage of activity [28]: −2% | RPS6KA1 percentage of activity [25]: 55% | TAK1 percentage of activity [26]: 12%
